The values that follow come from patent US20230303635A1, “DIAGNOSTIC METHODS AND COMPOSITIONS” (THE REGENTS OF THE UNIVERSITY OF CALIFORNIA, priority 2020, published 2023).

In general, Kd refers to the constant that tells how readily two partners part at equilibrium.

Where two headings read alike, the source gives them in different places.

Assay [1] concerns the target receptor binding domain (RBD) of the SARS-CoV-2 spike protein (Severe acute respiratory syndrome coronavirus 2, UniProt P0DTC2). To be noted: cited from earlier work.
The nature of assay [2]: Fluorescence spectroscopy of gpW FRET constructs upon pH titration.
Procedure: Accordingly, the fluorescence integration was employed on this variant. Specifically, an extra cysteine was added at the N-terminal (N-ter), e.g., position 1, and the second cysteine was introduced near the C-terminal (C-ter) by replacing the methionine at position 56. These mutations allow us to chemically label the L7H with a FRET-pair to monitor the end-to-end distance of L7H (L7H-FRET). Another FRET-construct was also designed to measure the distance change between the beta-hairpin and the helix-1. […] In this regard, two cysteines were placed on the M18H-F35H variant by adding one cysteine at the N-ter (position 1) and replacing an aspartate (position 29) with cysteine. […] In both constructs, Alexa-488 maleimide and Alexa-594 maleimide are used as the FRET pair as they have many advantageous features. […]
Proteins samples were prepared at different pH by adding the labeled proteins 20 mM citrate buffer for experiments in the 3-6 pH range, phosphate buffer pH 7, and Tris-HCl buffer for the 8-9 pH range. […] Fluorescence emission spectra were recorded between 630 nm and 740 nm by exciting the ATTO 655 at 620 nm or between 490 nm and 720 nm by exciting the Alexa 488 at 480 nm. The pH titration on L7H-helix was triplicated, and L7H-Cter was replicated five times to calculate the standard deviation due to the concentration dependence of the PET fluorescence technique.

Regarding “GSGSGSTIEEQAKTFLDKANCEAEDLAYQSSLAS [ACE-2 α-helix]”, the figures for the Kd in assay [1] (read-out: binding affinity (KD) to SARS-CoV-2 S protein) and in assay [1] (read-out: binding affinity (Kd) to SARS-CoV-2 spike protein RBD) were 1000 nM and 50 nM, respectively.

B1: L7H: single histidine graft L7H on downhill folding protein gpW (protein, UniProt P68660 1-68, looked up, variant L7H)
Head completion protein: MTRQEEHAAARAALHDLMTGKRVATVQKDGRRVEFTATSVSDLKKYIAELEVQTGMTQRRRGPAGFYV
As to B1, in assay [2], the “distance change as a function of pH” value was “less than 1 nm”.
